This is an account of results in patent US12421232B2, “Kinase inhibitor compounds and compositions and methods of use” (ICAHN SCHOOL OF MEDICINE AT MOUNT SINAI, priority 2018, dated 2025).

The target of one data set is T1, CSNK1A1 (Homo sapiens, UniProt P48729).
T1 construct: purchased DiscoverX
Kind of data set: KINOMEscan Assay (DiscoverX). It counts as binding. The settings on record: read-out: % DMSO Ctrl.

The next data set addresses T2, Adrenergic α2C (Homo sapiens, UniProt P18825).
T2 construct: purchased Eurofins CEREP
Kind of data set: Eurofins CEREP Screen. It counts as binding.

Data set [1] concerns the target T3, Serotonin (5-Hydroxytryptamine) 5-HT6 (Homo sapiens, UniProt P50406).
T3 construct: Eurofins CEREP (contract screen)
Kind of data set: Eurofins CEREP Screen. Type of data set: binding.

Data set [2] concerns the target T4, Transporter, Norepinephrine (NET) (Homo sapiens, UniProt P23975).
T4 construct: Eurofins CEREP (contract screen)
Kind of data set: Eurofins CEREP Screen. Type of data set: binding.

For a further data set, the target named is Adrenergic α2A (Homo sapiens, UniProt P08913). Kind of data set: biochemical.
Data set [3] has as its system human β-cells (dispersed human islet cells). Kind of data set: Human β-cell proliferation assay (Ki67 and insulin staining). It counts as cell-based.
In data set [4] the test system is NFAT2-GFP nuclear translocation in R7T1 rodent beta cells. Kind of data set: NFAT2 translocation assay. The note with it: 10 μM, 24 hours. It counts as cell-based. An excerpt: NFAT2T Translocation Assay. […] At least 1000 cells were counted.
Another data set deals with FLT3(ITD,D835V). Kind of data set: KINOMEscan Assay (DiscoverX). Type of data set: binding. The note with it: FLT3(ITD,D835V) mutant; 10 μM.
Another data set concerns the target T5, FLT3(K663Q) (Homo sapiens, UniProt P36888, K663Q).
T5 construct: purchased DiscoverX
T5 sequence (P36888 27-993 K663Q): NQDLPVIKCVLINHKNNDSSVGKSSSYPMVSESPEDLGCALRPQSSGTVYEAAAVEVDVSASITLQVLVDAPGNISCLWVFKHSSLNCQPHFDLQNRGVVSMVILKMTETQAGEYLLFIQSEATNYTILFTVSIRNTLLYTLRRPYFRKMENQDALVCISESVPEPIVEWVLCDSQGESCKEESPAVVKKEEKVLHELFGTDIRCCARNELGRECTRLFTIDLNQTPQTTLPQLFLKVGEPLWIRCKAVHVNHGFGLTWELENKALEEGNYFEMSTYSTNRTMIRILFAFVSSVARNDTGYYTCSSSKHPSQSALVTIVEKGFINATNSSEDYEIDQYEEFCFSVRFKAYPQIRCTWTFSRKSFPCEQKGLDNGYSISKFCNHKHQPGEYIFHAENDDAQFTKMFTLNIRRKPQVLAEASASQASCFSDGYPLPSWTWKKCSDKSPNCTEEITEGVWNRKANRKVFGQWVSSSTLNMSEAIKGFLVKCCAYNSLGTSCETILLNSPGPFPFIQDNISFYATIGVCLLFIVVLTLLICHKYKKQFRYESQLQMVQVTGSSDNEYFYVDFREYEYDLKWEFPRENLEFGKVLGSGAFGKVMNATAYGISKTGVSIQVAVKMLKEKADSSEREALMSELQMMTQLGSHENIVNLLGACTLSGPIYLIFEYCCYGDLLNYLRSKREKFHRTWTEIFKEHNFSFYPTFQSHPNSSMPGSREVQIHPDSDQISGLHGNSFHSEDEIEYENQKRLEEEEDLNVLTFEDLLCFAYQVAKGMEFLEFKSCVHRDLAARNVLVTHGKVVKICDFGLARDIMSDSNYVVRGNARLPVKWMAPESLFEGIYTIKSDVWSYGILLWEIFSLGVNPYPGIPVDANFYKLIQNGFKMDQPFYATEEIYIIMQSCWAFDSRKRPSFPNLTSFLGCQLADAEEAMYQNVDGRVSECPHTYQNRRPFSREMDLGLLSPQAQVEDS
Kind of data set: KINOMEscan Assay (DiscoverX). It counts as binding. The note with it: read-out: % DMSO Ctrl.

The next data set deals with T6, CDK11 (Homo sapiens, UniProt Q9BWU1).
T6 construct: purchased DiscoverX
T6 sequence (Q9BWU1 whole entry): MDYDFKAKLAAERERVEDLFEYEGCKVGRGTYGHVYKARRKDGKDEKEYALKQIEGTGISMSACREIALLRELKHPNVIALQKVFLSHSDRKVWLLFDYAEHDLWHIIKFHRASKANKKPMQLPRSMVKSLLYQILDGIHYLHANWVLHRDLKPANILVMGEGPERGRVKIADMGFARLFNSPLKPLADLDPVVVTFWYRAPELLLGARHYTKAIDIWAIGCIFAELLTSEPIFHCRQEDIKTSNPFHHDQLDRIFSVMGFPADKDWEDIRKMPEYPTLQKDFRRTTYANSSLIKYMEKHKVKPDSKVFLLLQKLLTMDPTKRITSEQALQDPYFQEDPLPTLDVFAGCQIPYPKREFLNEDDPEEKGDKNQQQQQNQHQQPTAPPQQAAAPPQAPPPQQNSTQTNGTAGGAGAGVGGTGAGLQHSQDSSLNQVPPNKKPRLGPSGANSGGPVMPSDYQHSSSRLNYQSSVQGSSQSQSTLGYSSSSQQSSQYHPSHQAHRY
Kind of data set: KINOMEscan Assay (DiscoverX). Type of data set: binding. The note with it: read-out: % DMSO Ctrl.

The next data set concerns the target T7, CDK8 (Homo sapiens, UniProt P49336).
T7 construct: purchased DiscoverX
Kind of data set: KINOMEscan Assay (DiscoverX). Type of data set: binding. The settings on record: read-out: % DMSO Ctrl.

A further data set has as its target T8, CDKL5 (Homo sapiens, UniProt O76039).
T8 construct: purchased DiscoverX
Kind of data set: KINOMEscan Assay (DiscoverX). Type of data set: binding. The note with it: read-out: % DMSO Ctrl.

Another data set addresses T9, CIT (Homo sapiens, UniProt O14578).
T9 construct: purchased DiscoverX
Kind of data set: KINOMEscan Assay (DiscoverX). Type of data set: binding. The settings on record: read-out: % DMSO Ctrl.

For another data set, the target named is T10, CLK1 (Homo sapiens, UniProt P49759).
T10 construct: purchased DiscoverX
T10 sequence (P49759 whole entry): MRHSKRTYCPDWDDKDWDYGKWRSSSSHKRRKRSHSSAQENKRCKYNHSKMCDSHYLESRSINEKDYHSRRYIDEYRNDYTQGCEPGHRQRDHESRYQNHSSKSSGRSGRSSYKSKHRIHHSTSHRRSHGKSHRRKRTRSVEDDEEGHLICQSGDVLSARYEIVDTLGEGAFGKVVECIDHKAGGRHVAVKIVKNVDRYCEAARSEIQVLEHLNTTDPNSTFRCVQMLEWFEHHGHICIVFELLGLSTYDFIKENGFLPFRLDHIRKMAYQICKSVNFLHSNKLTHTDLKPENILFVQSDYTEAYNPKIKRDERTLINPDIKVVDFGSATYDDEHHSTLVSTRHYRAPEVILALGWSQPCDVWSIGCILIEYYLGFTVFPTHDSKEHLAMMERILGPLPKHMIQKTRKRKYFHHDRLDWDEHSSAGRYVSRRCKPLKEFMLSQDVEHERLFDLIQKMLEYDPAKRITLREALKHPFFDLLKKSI
Kind of data set: KINOMEscan Assay (DiscoverX). Type of data set: binding. The note with it: read-out: % DMSO Ctrl.

In the next data set the target is T11, CLK2 (Homo sapiens, UniProt P49760).
T11 construct: purchased DiscoverX
Kind of data set: KINOMEscan Assay (DiscoverX). It counts as binding. The note with it: read-out: % DMSO Ctrl.

For a further data set, the target named is T12, CLK4 (Homo sapiens, UniProt Q9HAZ1).
T12 construct: purchased DiscoverX
Kind of data set: KINOMEscan Assay (DiscoverX). It counts as binding. The settings on record: read-out: % DMSO Ctrl.

Another data set has as its target T13, CSNK1D (Homo sapiens, UniProt P48730).
T13 construct: purchased DiscoverX
Kind of data set: KINOMEscan Assay (DiscoverX). It counts as binding. The settings on record: read-out: % DMSO Ctrl.

For another data set, the target named is T14, CSNK1E (Homo sapiens, UniProt P49674).
T14 construct: purchased DiscoverX
Kind of data set: KINOMEscan Assay (DiscoverX). It counts as binding. The settings on record: read-out: % DMSO Ctrl.

The next data set has as its target T15, CSNK2A2 (Homo sapiens, UniProt P19784).
T15 construct: purchased DiscoverX
Kind of data set: KINOMEscan Assay (DiscoverX). It counts as binding. The settings on record: read-out: % DMSO Ctrl.

The target in another data set is T16, DAPK1 (Homo sapiens, UniProt P53355).
T16 construct: purchased DiscoverX
T16 sequence (P53355 whole entry): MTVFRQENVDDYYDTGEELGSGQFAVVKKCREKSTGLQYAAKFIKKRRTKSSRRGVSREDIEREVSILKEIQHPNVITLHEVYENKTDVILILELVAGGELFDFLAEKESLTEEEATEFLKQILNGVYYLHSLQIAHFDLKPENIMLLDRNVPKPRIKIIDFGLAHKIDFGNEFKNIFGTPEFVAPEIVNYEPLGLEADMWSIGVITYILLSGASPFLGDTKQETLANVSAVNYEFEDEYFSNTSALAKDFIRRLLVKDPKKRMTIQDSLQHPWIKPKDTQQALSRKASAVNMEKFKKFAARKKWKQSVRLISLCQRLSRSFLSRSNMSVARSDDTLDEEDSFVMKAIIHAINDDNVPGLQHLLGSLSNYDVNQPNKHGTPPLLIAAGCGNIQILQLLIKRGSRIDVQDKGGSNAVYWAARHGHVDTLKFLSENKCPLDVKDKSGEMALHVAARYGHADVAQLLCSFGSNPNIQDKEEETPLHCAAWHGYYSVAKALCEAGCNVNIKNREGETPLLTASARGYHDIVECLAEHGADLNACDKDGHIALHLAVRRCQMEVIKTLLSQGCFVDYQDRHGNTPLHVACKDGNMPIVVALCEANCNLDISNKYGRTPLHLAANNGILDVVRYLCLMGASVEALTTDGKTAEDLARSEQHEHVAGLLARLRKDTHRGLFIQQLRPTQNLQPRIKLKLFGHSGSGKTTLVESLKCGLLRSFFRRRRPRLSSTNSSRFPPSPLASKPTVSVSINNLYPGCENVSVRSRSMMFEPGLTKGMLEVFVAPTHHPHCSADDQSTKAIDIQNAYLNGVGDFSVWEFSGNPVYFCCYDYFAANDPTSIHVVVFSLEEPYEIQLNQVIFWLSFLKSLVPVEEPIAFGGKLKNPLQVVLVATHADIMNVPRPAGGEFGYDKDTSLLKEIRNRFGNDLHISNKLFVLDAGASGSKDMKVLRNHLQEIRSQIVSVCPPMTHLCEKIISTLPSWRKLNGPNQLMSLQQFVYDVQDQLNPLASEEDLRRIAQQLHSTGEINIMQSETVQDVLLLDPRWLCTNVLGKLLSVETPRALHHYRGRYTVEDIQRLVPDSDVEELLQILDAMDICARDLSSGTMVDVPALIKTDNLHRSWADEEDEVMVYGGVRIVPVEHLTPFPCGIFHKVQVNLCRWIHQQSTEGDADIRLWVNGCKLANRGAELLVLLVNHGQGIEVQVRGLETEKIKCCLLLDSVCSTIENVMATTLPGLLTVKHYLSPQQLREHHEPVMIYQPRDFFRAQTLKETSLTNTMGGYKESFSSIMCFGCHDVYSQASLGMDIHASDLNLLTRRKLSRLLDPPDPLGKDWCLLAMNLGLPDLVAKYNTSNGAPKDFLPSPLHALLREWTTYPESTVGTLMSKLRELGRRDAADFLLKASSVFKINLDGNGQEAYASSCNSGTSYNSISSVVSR
Kind of data set: KINOMEscan Assay (DiscoverX). The note with it: read-out: % DMSO Ctrl. It counts as binding.

The target of the next data set is T17, DAPK2 (Homo sapiens, UniProt Q9UIK4).
T17 construct: purchased DiscoverX
Kind of data set: KINOMEscan Assay (DiscoverX). Type of data set: binding. The note with it: read-out: % DMSO Ctrl.

The next data set has as its target T18, DAPK3 (Homo sapiens, UniProt O43293).
T18 construct: purchased DiscoverX
Kind of data set: KINOMEscan Assay (DiscoverX). It counts as binding. The settings on record: read-out: % DMSO Ctrl.

The target in the next data set is T19, DRAK2 (Homo sapiens, UniProt O94768).
T19 construct: purchased DiscoverX
T19 sequence (O94768 whole entry): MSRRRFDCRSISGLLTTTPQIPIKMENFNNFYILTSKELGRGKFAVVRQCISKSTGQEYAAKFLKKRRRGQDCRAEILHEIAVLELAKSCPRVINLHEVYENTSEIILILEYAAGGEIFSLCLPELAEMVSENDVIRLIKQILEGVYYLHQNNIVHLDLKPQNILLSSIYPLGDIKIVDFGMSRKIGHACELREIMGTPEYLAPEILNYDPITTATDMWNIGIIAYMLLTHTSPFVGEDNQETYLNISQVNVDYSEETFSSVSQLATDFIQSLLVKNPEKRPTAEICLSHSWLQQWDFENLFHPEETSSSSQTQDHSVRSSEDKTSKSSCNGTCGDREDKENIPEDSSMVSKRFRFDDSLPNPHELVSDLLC
Kind of data set: KINOMEscan Assay (DiscoverX). Type of data set: binding. The note with it: read-out: % DMSO Ctrl.

For the next data set, the target named is T20, HIPK1 (Homo sapiens, UniProt Q86Z02).
T20 construct: purchased DiscoverX
Kind of data set: KINOMEscan Assay (DiscoverX). It counts as binding. The settings on record: read-out: % DMSO Ctrl.

In a further data set the target is T21, TGFBR2 (Homo sapiens, UniProt P37173).
T21 construct: purchased DiscoverX
T21 sequence (P37173 23-567): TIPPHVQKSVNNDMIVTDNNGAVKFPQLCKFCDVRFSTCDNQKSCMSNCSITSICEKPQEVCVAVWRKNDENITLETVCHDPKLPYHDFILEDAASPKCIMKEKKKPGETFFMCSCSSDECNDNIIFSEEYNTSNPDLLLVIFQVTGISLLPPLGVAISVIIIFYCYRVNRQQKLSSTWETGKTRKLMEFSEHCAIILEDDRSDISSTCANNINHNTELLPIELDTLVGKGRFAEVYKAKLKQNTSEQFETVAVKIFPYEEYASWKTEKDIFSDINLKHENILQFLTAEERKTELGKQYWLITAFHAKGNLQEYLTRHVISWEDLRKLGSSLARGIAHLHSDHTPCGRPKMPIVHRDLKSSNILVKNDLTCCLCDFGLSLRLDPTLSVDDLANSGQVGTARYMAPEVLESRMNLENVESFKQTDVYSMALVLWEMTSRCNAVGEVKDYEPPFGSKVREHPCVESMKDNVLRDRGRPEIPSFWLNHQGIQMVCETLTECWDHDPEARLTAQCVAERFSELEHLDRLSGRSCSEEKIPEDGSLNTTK
Kind of data set: KINOMEscan Assay (DiscoverX). Type of data set: binding. The settings on record: read-out: % DMSO Ctrl.

For a further data set, the target named is T22, VPS34 (Homo sapiens, UniProt Q8NEB9).
T22 construct: purchased DiscoverX
T22 sequence (Q8NEB9 whole entry): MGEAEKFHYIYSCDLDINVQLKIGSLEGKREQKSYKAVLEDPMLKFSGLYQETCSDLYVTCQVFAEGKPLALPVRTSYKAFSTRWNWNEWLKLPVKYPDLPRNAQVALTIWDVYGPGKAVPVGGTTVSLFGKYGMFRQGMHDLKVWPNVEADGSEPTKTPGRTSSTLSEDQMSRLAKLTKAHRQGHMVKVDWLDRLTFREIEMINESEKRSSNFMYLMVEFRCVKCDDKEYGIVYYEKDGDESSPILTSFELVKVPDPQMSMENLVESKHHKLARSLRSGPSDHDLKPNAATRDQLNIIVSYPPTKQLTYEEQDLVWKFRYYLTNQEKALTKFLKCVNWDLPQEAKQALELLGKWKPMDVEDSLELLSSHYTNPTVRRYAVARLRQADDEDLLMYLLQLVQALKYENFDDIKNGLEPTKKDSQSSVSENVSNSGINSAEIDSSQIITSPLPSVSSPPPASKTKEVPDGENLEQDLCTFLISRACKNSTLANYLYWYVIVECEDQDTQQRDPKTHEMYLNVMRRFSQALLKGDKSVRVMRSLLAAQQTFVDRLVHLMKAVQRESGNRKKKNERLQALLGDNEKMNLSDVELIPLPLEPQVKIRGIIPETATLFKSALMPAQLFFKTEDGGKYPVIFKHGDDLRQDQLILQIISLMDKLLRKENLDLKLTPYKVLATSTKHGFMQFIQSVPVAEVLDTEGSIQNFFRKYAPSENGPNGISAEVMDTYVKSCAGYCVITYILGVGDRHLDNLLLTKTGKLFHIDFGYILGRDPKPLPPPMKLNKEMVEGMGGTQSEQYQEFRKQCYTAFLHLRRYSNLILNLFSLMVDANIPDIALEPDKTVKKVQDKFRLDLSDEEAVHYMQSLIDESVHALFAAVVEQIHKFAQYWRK
Kind of data set: KINOMEscan Assay (DiscoverX). It counts as binding. The settings on record: read-out: % DMSO Ctrl.

Data set [5] deals with T23, DYRK1A (Homo sapiens, UniProt Q13627). Kind of data set: KINOMEscan Assay (DiscoverX). It counts as binding. Details: purchased Life Technologies.
Data set [6] addresses T23, DYRK1A. Kind of data set: FRET-based LanthaScreen Eu Kinase Binding Assay (Life Technologies).

Each structure is given as a SMILES string. pIC50: −log10 of the molar value. Read-outs that look alike come from different tables or passages of the source. Marks after values point to notes of the source that are not given here.

T1 sequence (P48729 whole entry): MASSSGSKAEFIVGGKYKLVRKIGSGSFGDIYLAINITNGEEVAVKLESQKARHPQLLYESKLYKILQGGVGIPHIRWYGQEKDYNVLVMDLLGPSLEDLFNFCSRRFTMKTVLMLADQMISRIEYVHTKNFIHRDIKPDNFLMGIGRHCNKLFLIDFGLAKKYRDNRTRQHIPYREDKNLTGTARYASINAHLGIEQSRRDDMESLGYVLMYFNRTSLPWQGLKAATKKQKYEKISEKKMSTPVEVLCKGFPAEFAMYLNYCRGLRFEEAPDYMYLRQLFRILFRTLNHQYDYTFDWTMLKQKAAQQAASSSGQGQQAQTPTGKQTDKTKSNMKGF
T15 sequence (P19784 whole entry): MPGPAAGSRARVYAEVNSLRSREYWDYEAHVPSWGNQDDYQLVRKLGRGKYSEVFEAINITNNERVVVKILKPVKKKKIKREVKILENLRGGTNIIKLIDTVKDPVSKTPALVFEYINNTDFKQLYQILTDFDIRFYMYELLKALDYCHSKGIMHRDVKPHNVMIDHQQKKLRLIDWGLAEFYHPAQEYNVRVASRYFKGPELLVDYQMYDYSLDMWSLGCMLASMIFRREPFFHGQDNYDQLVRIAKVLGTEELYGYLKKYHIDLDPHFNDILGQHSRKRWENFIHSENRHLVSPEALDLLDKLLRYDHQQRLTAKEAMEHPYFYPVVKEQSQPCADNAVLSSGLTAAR

A word on the inhibition: it is the drop in the measured response relative to a control, in per cent. For the compound `COc1ccc2c(c1)[nH]c1c(C)nccc12` [Harmine, reference compound], the remaining binding at 10 µM at CSNK1A1 came out at 5%. Besides, the inhibition at 10 µM at Adrenergic α2C came out at 45%; in data set [1], 37%; in data set [2] it was 86%; against Adrenergic α2A, 59%.
For `COc1ccc2c(c1)[nH]c1c(C)nc(CO)cc12` [Compound 2-8, (1-Methyl-7-methoxy-9H-pyrido[3,4-b]indol-3-yl)methanol], the beta cell toxicity result in data set [3] is “did not cause toxicity”. Further, the “NFAT2 translocation to nucleus” value in [4] is reported as “drove NFAT2 translocation to nucleus”. In addition, the “% DMSO Ctrl” value in the data set on FLT3(ITD,D835V) is 37 % DMSO Ctrl. For the same compound, the remaining binding at 10 µM at FLT3(K663Q) (FLT3(K663Q) mutant, 10 μM) amounted to 100%.
Regarding `COc1ccc2c3ccnc(C)c3n(CCCc3noc(N)n3)c2c1` [Compound 20-13, 3-(3-(7-Methoxy-1-methyl-β-carbolin-9-yl)propyl)-5-amino-1,2,4-oxadiazole], the “human β-cell proliferation (in words)” value in [3] (5 μM, versus harmine at 10 μM) is on record as “induced Human 3-Cell proliferation to a greater extent that harmine”. Also, the remaining binding at 10 µM at CDK11 worked out at 81%; at CDK8, 100%; on CDKL5, 21%; on CIT, 66%; at CLK1, 4.1%; on CLK2, 4.2%. The remaining binding at 10 µM at CLK4 is 1.7%; on CSNK1A1, 33%; on CSNK1D it was 65%; at CSNK1E, 61%; at CSNK2A2 it was 50%; at DAPK1 it was 91%. Further, the remaining binding at 10 µM at DAPK2 was determined as 92%; at DAPK3 it was 91%; on DRAK2, 100%; at FLT3(K663Q), 98%; on HIPK1, 9.5%; at TGFBR2 it was 100%. The remaining binding at 10 µM at VPS34 was determined as 42%. In addition, the “% DMSO Ctrl” value in the data set on FLT3(ITD,D835V) is recorded as 11 ^c % DMSO Ctrl; at DYRK1A [5] (DYRK1A, 10 μM) it was 0 ^b % DMSO Ctrl.
For orientation: pIC50 means the IC50 on a negative log10 scale, so that one unit is a factor of ten. Low readings indicate a large IC50, high ones a small IC50. For `C#CCn1c2cc(OC)ccc2c2ccnc(C)c21` [Compound 20-23a, 3-(7-Methoxy-1-methyl-β-carbolin-9-yl)-propan-1-yne], the remaining binding at 10 µM worked out at 40% on CDK11; 26% at CDK8; 22% at CDKL5; 26% on CIT; 1.9% on CLK1; 0.9% on CLK2. The remaining binding at 10 µM at CLK4 was determined as 1.1%; on CSNK1A1 (CSNK1A1, 10 μM), 13%; on CSNK1D it was 38%; at CSNK1E it was 26%; on CSNK2A2, 54%; at DAPK1 it was 89%. Further, the remaining binding at 10 µM on DAPK2 turned out to be 70%; on DAPK3, 75%; on DRAK2, 100%; at FLT3(K663Q) it was 93%; on HIPK1, 12%; on TGFBR2 it was 98%. The remaining binding at 10 µM on VPS34 (VPS34, 10 μM) came to 89%; on DYRK1A [5] (read-out: % DMSO Ctrl), 0%. Besides, the “% DMSO Ctrl” value in the data set with FLT3(ITD,D835V) is 11 ^c % DMSO Ctrl. Further, the negative-log IC50 (pIC50) at DYRK1A [6] is 8.10.
